Assay results: ChEMBL document CHEMBL4340537, “A cross-linking approach to map small molecule-RNA binding sites in cells” (Bioorg Med Chem Lett, 2019)
Calls of active or inactive are those of the source. The rule behind the calls is not given here. Numbered stars: 1 amine (or outer) side, 2 acyl side, 3 side chain; on linkers, the order of the positions; unused ones are H or OH. Square brackets hold non-standard residues; d marks the D form. Peptide text beside a SMILES is read from it. * marks the point of attachment. Biotinyl(3aR,4R,6aS) = O=C1N[C@@H]2[C@@H](CS[C@@H]2CCCCC(=O)*)N1; N(2-Aminoethyl)Gly = O=C(CN(CCN[*:3])[*:1])[*:2]; Chlorambucil = O=C(CCCc1ccc(N(CCCl)CCCl)cc1)*; Gly(N-propargyl) = C#CCNCC(=O)O; NPrGly = CCCNCC(=O)O

Experiments:
[1] = system: MDA-MB-231; assay: Binding affinity to pri-miR-96 RNA in human MDA-MB-231 cells assessed as increase in FOXO1 protein expression at 50 nM for 24 hrs by RT-qPCR method; format: cell-based
[2] = Binding affinity to 32P-labeled pri-miR-96 RNA (unknown origin) incubated for 4 hrs by streptavidin based liquid scintillation counting dependent pull down assay
[3] = system: MDA-MB-231; assay: Binding affinity to pri-miR-96 RNA in human MDA-MB-231 cells assessed as reduction in matured miR-96 levels at 50 nM for 24 hrs by RT-qPCR method; format: cell-based
[4] = system: MDA-MB-231; assay: Induction of apoptosis in human MDA-MB-231 cells assessed as increase in caspase 3/7 activity up to 500 nM incubated for 48 hrs by caspase glo 3/7 assay; format: functional, cell-based
[5] = system: MDA-MB-231; assay: Binding affinity to pri-miR-96 RNA in human MDA-MB-231 cells assessed as increase in RNA abundance at 50 nM for 24 hrs by RT-qPCR relative to control; format: cell-based
[6] = system: MCF-10A; assay: Induction of apoptosis in human MCF10A cells assessed as increase in caspase 3/7 activity up to 500 nM incubated for 48 hrs by caspase glo 3/7 assay; format: cell-based
[7] = system: microRNA 96; assay: Inhibition of miR-96 RNA in human MDA-MB-231 cells by volcano plot analysis; format: cell-based
[8] = Binding affinity to pri-miR-96 RNA (unknown origin) at 1000 nM in presence of Targaprimir-96 by in vitro competitive (C-)Chem CLIP assay
[9] = system: microRNA 96; assay: Inhibition of miR-96 RNA in human MDA-MB-231 cells by TargetScan assay; format: cell-based

With `C#CCN(CC(=O)N(CCNC(=O)CCCC[C@H]1SC[C@H]2NC(=O)N[C@H]21)CC(N)=O)C(=O)CN(CCC)C(=O)CN(CCNC(=O)CCCc1ccc(N(CCCl)CCCl)cc1)C(C)=O` (Ac-[N(2-Aminoethyl)Gly](Chlorambucil)[NPrGly][Gly(N-propargyl)][N(2-Aminoethyl)Gly](Biotinyl(3aR,4R,6aS))-NH2) as the compound, how does the Activity [1] read?
The Activity was “inactive”.

What about the Activity [2] of the same compound?
The Activity was “inactive”.

And the Activity [3]?
Its Activity is “inactive”.

What about the Activity [4] of the same compound?
Its Activity is “inactive”.

Which results are given for `CCCN(CC(=O)N(CCC)CC(=O)N(CC(N)=O)Cc1cn(CCCNC(=O)CCCOc2c(C(C)(C)C)cc(-c3nc4cc(N5CCN(C)CC5)ccc4[nH]3)cc2C(C)(C)C)nn1)C(=O)CCCOc1cccc(-c2nc3ccc(-c4nc5ccc(N6CCN(C)CC6)cc5[nH]4)cc3[nH]2)c1`?
Activity [1]: Active; fold change (FC) [5]: 1.5; Activity [3]: Active; Activity [6]: Non-Toxic; Activity [4]: Active

For `CCCN(CC(=O)N(CC(=O)N(CCNC(=O)CCCC[C@H]1SC[C@H]2NC(=O)N[C@H]21)CC(N)=O)Cc1cn(CCCNC(=O)CCCOc2c(C(C)(C)C)cc(-c3nc4cc(N5CCN(C)CC5)ccc4[nH]3)cc2C(C)(C)C)nn1)C(=O)CN(CCNC(=O)CCCc1ccc(N(CCCl)CCCl)cc1)C(=O)CCCOc1cccc(-c2nc3ccc(-c4nc5cc(N6CCN(C)CC6)ccc5[nH]4)cc3[nH]2)c1`, which Activity [6] is on record?
Its Activity is “Non-Toxic”.

With `CCCN(CC(=O)N(CC(=O)N(CCNC(=O)CCCC[C@H]1SC[C@H]2NC(=O)N[C@H]21)CC(N)=O)Cc1cn(CCCNC(=O)CCCOc2c(C(C)(C)C)cc(-c3nc4cc(N5CCN(C)CC5)ccc4[nH]3)cc2C(C)(C)C)nn1)C(=O)CN(CCNC(=O)CCCc1ccc(N(CCCl)CCCl)cc1)C(=O)CCCOc1cccc(-c2nc3ccc(-c4nc5ccc(N6CCN(C)CC6)cc5[nH]4)cc3[nH]2)c1` as the compound, how does the inhibition [7] read?
The inhibition was “Active”.

And the Activity [1]?
Its Activity is “Active”.

And the Activity [8]?
Its Activity is “inactive”.

And the Activity [2]?
Its Activity is “Active”.

What about the fold change (FC) [5] of the same compound?
The fold change (FC) was 1.5.

What about the inhibition [9] of the same compound?
The inhibition was “Active”.

What about the Activity [3] of the same compound?
The Activity was “Active”.

And the Activity [4]?
The Activity was “Active”.
